Results reported in US20210220384A1, “ORAL ADMINISTRABLE PHARMACEUTICAL COMPOSITION” (TAIHO PHARMACEUTICAL CO., LTD., priority 2012, published 2021).

Assay: Critical relative humidity of additives by moisture sorption analyzer (Test Example 1)
Type: physicochemical
Details: of the additive (excipient) alone, moisture sorption analyzer DVS-1
Method: The orally administrable pharmaceutical composition of the present invention, to which sugars having a critical relative humidity of 85% or more at 25° C. as an excipient is added, suppresses increases in FTD and TPI related substances even stored under high-humidity conditions. A “critical relative humidity” herein means a well-known indicator representing the hygroscopicity, and refers to a relative humidity when a rapid increase in the amount of moisture absorbed in a sample is observed in the case where the relative humidity is increased. The critical relative humidity can be checked by measuring the change in the weight of a sample at 25° C. and a relative humidity of from 10 to 95% using, for example, a moisture sorption analyzer (DVS-1, Surface Measurement Systems Ltd.). “A critical relative humidity at 25° C. is 85% or more” means that moisture is not substantially absorbed when the relative humidity at 25° C. is less than 85%. Also, “no critical relative humidity” means that moisture is absorbed at a low humidity depending on the humidity, and a rapid increase in the amount of moisture absorbed associated with an increase in the relative humidity is not observed.
The critical relative humidity of additives at 25° C. shown in Tables 1 and 2 was measured using a moisture sorption analyzer (DVS-1, Surface Measurement Systems Ltd.).

Compound | Critical relative humidity (%, at 25° C.)
OC[C@@H](O)[C@@H](O)[C@H](O)[C@@H](O)CO [D-sorbitol] | 50-60%
OC[C@H]1O[C@@](CO)(O[C@H]2O[C@H](CO)[C@@H](O)[C@H](O)[C@H]2O)[C@@H](O)[C@@H]1O [Sucrose, sucrose] | 85 or more %
O.OC[C@H]1O[C@@H](O[C@H]2[C@H](O)[C@@H](O)C(O)O[C@@H]2CO)[C@H](O)[C@@H](O)[C@H]1O (some centres unmarked) [Lactose hydrate, lactose hydrate] | 95 or more %

Now from value to compound:

Critical relative humidity (%, at 25° C.) | Compound
75-85% | OC[C@@H](O)[C@H](O)[C@@H](O)CO [Xylitol, xylitol]
95 or more % | OC[C@@H](O)[C@@H](O)[C@H](O)[C@H](O)CO [D-mannitol]
